Assays:
[1] = test system: miR-762; test: miR-762 levels in cells exposed to HDAC inhibitors; format: cell-based; settings: mouse C2C12 cells, TSA 50 nM vs DMSO, 48 hours (FIG. 7)
Experimental: Epigenetic drugs increasing expression of miR-15 family members levels or miR762 are anticipated to have therapeutic potential. Importantly, these drugs are generally safe, and could influence NRDs even with small changes in miR levels. No regulators of miR-762 have been published, so whether candidate drugs might alter miR-762 levels in vitro were assessed. Cells were exposed to vehicle, trichostatin A (TSA, an HDAC inhibitor and antifungal agent), and valproate (an epilepsy drug, mood stabilizer, and weaker HDAC inhibitor). TSA increased miR-762 levels 65-fold (FIG. 7).

[2] = test system: NETO1 mRNA; test: NETO1 mRNA levels in astrocytes transfected with miR-762 mimic, inhibitor or scrambled miR; format: cell-based; settings: non-diseased astrocytes transfected with 400 nM, vs scrambled miR (FIG. 15)
From the text: De novo introduction of the expanded repeat into naïve wild-type cells to induce NETO1 expression will be evaluated. […] NETO1 is not a predicted target of miR-762 by traditional in silico analysis (which relies on 3′ UTR analysis). However, a (C4G2)3 site 149 base pairs upstream of the NETO1 5′ UTR was identified that appeared significant both for its perfect replication of the C9 antisense expansion and its predicted tight pairing to miR-762 (RegRNA database: http://regrna.mbc.nctu.edu.tw/html/prediction.html). miR binding and regulation of transcripts in the 5′ region is poorly understood, but is known to occur. miR-762 may be able to bind and downregulate NETO1 transcript levels. To assess this, non-diseased astrocytes were transfected with 400 nM miR-762 mimic, miR-762 inhibitor, or scrambled miR. […] If NETO1 regulation is involved in FTLD-MND glutamate excitotoxicity, then targeting miR-762 regulation of the transcript could represent a possible therapeutic angle.

Molecule	increase of miR-762 levels [1]	NETO1 mRNA level [2]
CC(/C=C/C(=O)NO)=C\[C@@H](C)C(=O)c1ccc(N(C)C)cc1 [TSA, trichostatin A]	65 fold	
miR-762: miR-762 mimic transfected at 400 nM; miRNA sequence SEQ ID NO: 5 (Table 1) (CGAGCCGGGGCCGGGGUCGGGG; listed as RNA, chemistry not given here; listed as Homo sapiens)		reproducible and significant downregulation

From patent US20160340732A1, “COMPOSITIONS AND METHODS FOR DIAGNOSING AND TREATING NUCLEOTIDE REPEAT DISORDERS” (University of Virginia Patent Foundation, priority 2015, published 2016)
